Assay results: PMC7155171, “Probing the Open Global Health Chemical Diversity Library for Multistage-Active Starting Points for Next-Generation Antimalarials” (ACS Infectious Diseases, 2020)
Read-outs that look alike come from different tables or passages of the source.

Tested on: P. falciparum Dd2 (PfLuc) line expressing firefly luciferase, asexual blood stage
Assay: microbe, parasite or virus in culture
Assay type: cell-based, Plasmodium falciparum
Details: Plasmodium falciparum
[1] = DD2, 8-pt dose response, 96hr, read-out: P. falciparum Luciferase ABS 8-pt Reconfirmation Dose Response (96hr): IC50
[2] = DD2, 8-pt dose response, 96hr, read-out: P. falciparum Luciferase ABS 8-pt Reconfirmation Dose Response (96hr): Maximum inhibition (%)
[3] = DD2, read-out: P. falciparum Luciferase ABS 11-pt Reconfirmation Dose Response (48hr): IC50, 11-pt dose response, 48hr
[4] = DD2, 11-pt dose response, 96hr, read-out: P. falciparum Luciferase ABS 11-pt Reconfirmation Dose Response (96hr): IC50
[5] = DD2, 11-pt dose response, 96hr, read-out: P. falciparum Luciferase ABS 11-pt Reconfirmation Dose Response (96hr): Maximum inhibition (%)
[6] = DD2, 8-pt dose response, 96hr, read-out: CDD P. falciparum Luciferase ABS 8-pt Reconfirmation Dose Response (96hr): IC50
[7] = DD2, 8-pt dose response, 96hr, read-out: CDD P. falciparum Luciferase ABS 8-pt Reconfirmation Dose Response (96hr): Maximum inhibition (%)

| SMILES | IC50 [1] [µM] | Emax [2] [%] | further results |
| --- | --- | --- | --- |
| CN(C)CCn1nc(C2CCN(Cc3ccccc3)C2)c2cccnc21 (centres unmarked) [DDD01056665] | 1.99 | 70.9 | – |
| Cc1cn2c(n1)C(CNCC1=Cc3cc(Cl)ccc3OC1)CCC2 (centres unmarked) [DDD01073229] | 1.71 | – | – |
| CC(NCCc1nccn1Cc1ccccc1)c1cccs1 (centres unmarked) [DDD01065609] | 1.39 | 85.7 | – |
| COc1ccnc(CN2CCCC(CCc3ccccc3)C2)c1OC (centres unmarked) [DDD01250826] | 1.26 | 92.5 | IC50 [3]: 1.41 µM; Emax (DD2, 11-pt dose response, 48hr, read-out: P. falciparum Luciferase ABS 11-pt Reconfirmation Dose Response (48hr): Maximum inhibition (%)): 93%; IC50 [4]: 0.447 µM; Emax [5]: 99.3% |
| Cc1cc(C)n(CCCn2cncc2-c2ccc3c(c2)CC(C)N3C)n1 (centres unmarked) [DDD01056528] | 1.7 | 94.8 | – |
| CCn1cncc1CN1CCN(CC2(c3ccc(C)cc3)CC2)CC1 [DDD01059073] | 1.26 | 85.6 | – |
| CC(C)n1ncc2c1NC(=O)CC21C(=O)Nc2c(Cl)ccc(Cl)c21 (centres unmarked) [DDD01027128] | 1.59 | 94.1 | – |
| COc1ccc2[nH]c(CNc3cc(C4CCNCC4)nc(C)n3)cc2c1 [DDD01249030] | 1.88 | 88 | – |
| CO[C@@H]1CCN(Cc2ccoc2)C[C@@H]1Cc1ccccc1 [DDD01081909] | – | – | IC50 [6]: 1.08 µM; Emax [7]: 85.9% |
| CN1CCCCC1c1ncc2c(n1)CCN(Cc1ccc(F)cc1)C2 (centres unmarked) [DDD01059924] | 1.65 | 84.5 | – |
| CC(Nc1nc(-c2ccccc2)nc2c1CCNCC2)c1cccnc1 (centres unmarked) [DDD01244613] | 1.58 | 92.9 | – |
| Cc1cc(F)ccc1CN1CCC(O)(CN2CCCCC2)C1 (centres unmarked) [DDD01258113] | 1.22 | 83.7 | – |
| Cc1nn(C)c(C)c1CCn1cncc1-c1ccc2c(c1)CC(C)N2C (centres unmarked) [DDD01056530] | 1.85 | 94.7 | – |
| FC1(F)CCN(Cc2cccnc2)CC12CCN(c1ccccc1)C2 (centres unmarked) [DDD01082961] | 1.65 | 91.5 | – |
| CC(C)=CCN1CCC2(CC1)c1ccccc1[C@@H](N1CCSCC1)[C@@H]2O [DDD01245335] | 1.31 | 82.4 | – |
| Cc1ccc(C(C)NCCc2nccn2Cc2ccccc2)o1 (centres unmarked) [DDD01065613] | 1.62 | 82.8 | – |
| CCN(C)CC1CCN(S(=O)(=O)c2cc(C)c(F)cc2Cl)C1 (centres unmarked) [DDD01067996] | 1.72 | 86.1 | – |
| C=Cc1cccc(CN2C[C@@H](CN(C)CC)[C@@H](CO)C2)c1 [DDD01250237] | 1.27 | 83.3 | – |
| CC(=O)N(c1ccc(C)cc1)c1nc(CN2CCCC(C)C2)cs1 (centres unmarked) [DDD01075341] | 1.83 | 86.4 | – |
| Fc1cnc(N2CCCC3(CCN(Cc4ccoc4)C3)C2)nc1 (centres unmarked) [DDD01084184] | 1.79 | 83.1 | – |
| Cn1ccnc1CNC1CCCOc2c1ccc1ccccc21 (centres unmarked) [DDD01063614] | 1.52 | 80.3 | – |
| COc1cccc(OC)c1CN1CC(=O)N(c2ccc(C)cc2)CC1C (centres unmarked) [DDD01252418] | 1.26 | 89.5 | IC50 [3]: 3.67 µM; IC50 [4]: 1.8 µM; Emax [5]: 93.6% |
| Cc1c(C(=O)N2CCC(N3CCCCC3)CC2)n(C)c2ccc(Cl)cc12 [DDD01255900] | – | – | IC50 (DD2, read-out: CDD P. falciparum Luciferase ABS 11-pt Reconfirmation Dose Response (48hr): IC50 (μM), 11-pt dose response, 48hr): 3.56 µM; IC50 [6]: 1.11 µM; Emax [7]: 93.8%; Emax (DD2, 11-pt dose response, 48hr, read-out: CDD P. falciparum Luciferase ABS 11-pt Reconfirmation Dose Response (48hr): Maximum inhibition (%)): 96.3%; IC50 (DD2, 11-pt dose response, 96hr, read-out: CDD P. falciparum Luciferase ABS 11-pt Reconfirmation Dose Response (96hr): IC50): 1.7 µM; Emax (DD2, 11-pt dose response, 96hr, read-out: CDD P. falciparum Luciferase ABS 11-pt Reconfirmation Dose Response (96hr): Maximum inhibition (%)): 98.9% |
| c1ccc(NC[C@@H]2CCC[C@@H]3CN(Cc4cccnc4)C[C@@H]32)nc1 [DDD01032334] | 1.72 | 81.5 | – |
| c1ccc2sc(N3CCCN(c4ncnc5c4CCNC5)CC3)nc2c1 [DDD01257073] | 1.83 | 84 | – |
| COc1ccccc1CCN1CCCC(CN(C)Cc2ccc(C)o2)C1 (centres unmarked) [DDD01250738] | 1.36 | 86.1 | – |
| COc1ccc(CN2CC[C@@H](O)[C@@H]2Cc2ccccc2)cc1 [DDD01037044] | 1.83 | 77.4 | – |
| CN1CCCC(c2cccc(Cc3ccccc3Cl)n2)C1 (centres unmarked) [DDD01270191] | 1.72 | 80.2 | – |
| CN1CCn2c(-c3cccc(F)c3)cnc2C12CCN(CC1CC1)CC2 [DDD01030549] | 1.2 | 84.4 | – |
